`O=C(O)[C@@H]1CCCN1C(=O)CCc1cccc(-c2nc(=O)c3ccccc3s2)n1` [Example 313, 1-{3-[6-(4-Oxo-4H-1,3-benzothiazin-2-yl)-2-pyridyl]propanoyl}proline] displayed a melting point of 210.5 to 211 °C. For the compound `CN(CC(=O)O)C(=O)CCc1cccc(-c2nc(=O)c3ccccc3s2)n1` [Example 314, (Methyl{3-[6-(4-oxo-4H-1,3-benzothiazin-2-yl)-2-pyridyl]propanoyl}amino)acetic acid], the melting point lay within 194.5 to 194.8 °C.

The compound `CCOC(=O)C(C)Cc1cccc(-c2nc(=O)c3ccccc3s2)n1` (centres unmarked) [Example 315, Ethyl 2-methyl-3-[6-(4-oxo-4H-1,3-benzothiazin-2-yl)-2-pyridyl]propionate] had a melting point of 120.2 to 120.7 °C. Under `O=c1nc(-c2cc(CCc3nnn[nH]3)ccn2)sc2ccccc12` [Example 316, 2-{4-[2-(1H-1,2,3,4-Tetrazol-5-yl)ethyl]-2-pyridyl}-4H-1,3-benzothiazine-4-one] stands 250 °C (dec.); under `N#CCCc1ccnc(-c2nc(=O)c3ccccc3s2)c1` [Example 317, 3-[2-(4-Oxo-4H-1,3-benzothiazin-2-yl)-4-pyridyl]propionitrile], 178.3 to 179 °C. The same measure for `CCOC(=O)C(C)Cc1ccnc(-c2nc(=O)c3ccccc3s2)c1` (centres unmarked) [Example 318, Ethyl 2-methyl-3-[2-(4-oxo-4H-1,3-benzothiazin-2-yl)-4-pyridyl]propionate]: 120.3 to 120.7 °C; for `Cc1cc(CCC(=O)OC(C)(C)C)cc(-c2nc(=O)c3ccccc3s2)n1` [Example 319, tert-Butyl 3-[2-methyl-6-(4-oxo-4H-1,3-benzothiazin-2-yl)-4-pyridyl]propanoate]: 129.4 to 130.5 °C.

For the compound `Cc1cc(CCC(=O)OC(C)(C)C)cc(-c2nc(=O)c3ccc(Cl)cc3s2)n1` [Example 320, tert-Butyl 3-[2-(7-chloro-4-oxo-4H-1,3-benzothiazin-2-yl)-6-methyl-4-pyridyl]propanoate], the melting point was 186.4 to 187.6 °C. The same measure for `Cc1cc(CCC(=O)O)cc(-c2nc(=O)c3ccccc3s2)n1` [Example 321, 3-[2-Methyl-6-(4-oxo-4H-1,3-benzothiazin-2-yl)-4-pyridyl]propionic acid]: 233.2 to 234.7 °C; for `Cc1cc(CCC(=O)O)cc(-c2nc(=O)c3ccc(Cl)cc3s2)n1` [Example 322, 3-[2-(7-Chloro-4-oxo-4H-1,3-benzothiazin-2-yl)-6-methyl-4-pyridyl]propionic acid]: 273.5 °C (dec.). For `CC(C)(C)OC(=O)CN1CCN(c2ccnc(-c3nc(=O)c4ccccc4s3)c2)C1=O` [Example 323, tert-Butyl [2-oxo-3-[2-(4-oxo-4H-1,3-benzothiazin-2-yl)-4-pyridyl]-1-imidazolidinyl]acetate], the melting point was in the range of 192.3 to 194 °C. The same measure for `O=C(O)CN1CCN(c2ccnc(-c3nc(=O)c4ccccc4s3)c2)C1=O` [Example 324, [2-Oxo-3-[2-(4-oxo-4H-1,3-benzothiazin-2-yl)-4-pyridyl]-1-imidazolidinyl]acetic acid]: 271 to 273 °C. The same measure for `CCN1CCN(c2ccnc(-c3nc(=O)c4ccccc4s3)c2)C1=O` [Example 325, 2-[4-(3-Ethyl-2-oxo-1-imidazolidinyl)-2-pyridyl]-4H-1,3-benzothiazine-4-one]: 211.5 to 213 °C; for `O=c1cccc(-c2nc(=O)c3ccccc3s2)[nH]1` [Example 326, 2-(6-Oxo-1,6-dihydro-2-pyridyl)-4H-1,3-benzothiazine-4-one]: 214.2 to 215.3 °C; for `CC(C)(C)OC(=O)CCc1ccc(-c2nc(=O)c3ccccc3s2)nc1` [Example 327, tert-Butyl 3-[6-(4-oxo-4H-1,3-benzothiazin-2-yl)-3-pyridyl]propanoate]: 160 to 161 °C. Under `O=C(O)CCc1ccc(-c2nc(=O)c3ccccc3s2)nc1` [Example 328, 3-[6-(4-Oxo-4H-1,3-benzothiazin-2-yl)-3-pyridyl]propionic acid] stands 232.2 to 232.4 °C. In the case of `NC(=O)CCc1ccc(-c2nc(=O)c3ccccc3s2)nc1` [Example 329, 3-[6-(4-Oxo-4H-1,3-benzothiazin-2-yl)-3-pyridyl]propanamide], the melting point was 247.5 to 247.8 °C. Under `NC(=O)CCc1cccc(-c2nc(=O)c3ccccc3s2)n1` [Example 330, 3-[6-(4-Oxo-4H-1,3-benzothiazin-2-yl)-2-pyridyl]propanamide] stands 236.3 to 236.5 °C; under `NC(=O)CCc1ccnc(-c2nc(=O)c3ccccc3s2)c1` [Example 331, 3-[6-(4-Oxo-4H-1,3-benzothiazin-2-yl)-4-pyridyl]propanamide], 237 to 239.7 °C. In turn, `CC(C)(C)OC(=O)CCOCCc1cccc(-c2nc(=O)c3ccccc3s2)n1` [Example 334, tert-Butyl 3-[2-(6-(4-oxo-4H-1,3-benzothiazin-2-yl)-2-pyridyl)ethoxy]propanoate] yielded a melting point of 67.7 to 68.5 °C. Under `O=C(O)CCOCCc1cccc(-c2nc(=O)c3ccccc3s2)n1` [Example 335, 3-[2-(6-(4-Oxo-4H-1,3-benzothiazin-2-yl)-2-pyridyl)ethoxy]propionic acid] stands 236.6 to 236.7 °C; under `CC(C)(C)OC(=O)CCOCc1cccc(-c2nc(=O)c3ccccc3s2)n1` [Example 336, tert-Butyl 3-[(6-(4-oxo-4H-1,3-benzothiazin-2-yl)-2-pyridyl)methoxy]propanoate], 84.7 to 84.9 °C; under `O=C(O)CCOCc1cccc(-c2nc(=O)c3ccccc3s2)n1` [Example 337, 3-[(6-(4-oxo-4H-1,3-benzothiazin-2-yl)-2-pyridyl)methoxy]propionic acid], 176.6 to 176.7 °C. The same measure for `Cc1cccc2c(=O)nc(-c3cccc(CCC(=O)OC(C)(C)C)n3)sc12` [Example 338, tert-Butyl 3-[6-(8-methyl-4-oxo-4H-1,3-benzothiazin-2-yl)-2-pyridyl]propanoate]: 109.9 to 110 °C; for `N#Cc1nc(-c2nc(=O)c3ccccc3s2)ccc1CCC(=O)O` [Example 340, 3-[2-Cyano-6-(4-oxo-4H-1,3-benzothiazin-2-yl)-3-pyridyl]propanoate]: 283.8 °C (dec.); for `CSc1cc(CCC(=O)OC(C)(C)C)cc(-c2nc(=O)c3ccccc3s2)n1` [Example 341, tert-Butyl 3-[2-(methylthio)-6-(4-oxo-4H-1,3-benzothiazin-2-yl)-4-pyridyl]propanoate]: 125.5 to 126.5 °C. Under `CSc1cc(CCC(=O)O)cc(-c2nc(=O)c3ccccc3s2)n1` [Example 342, 3-[2-(Methylthio)-6-(4-oxo-4H-1,3-benzothiazin-2-yl)-4-pyridyl]propionic acid] stands 235.5 to 236.5 °C; under `C[S+]([O-])c1cc(CCC(=O)OC(C)(C)C)cc(-c2nc(=O)c3ccccc3s2)n1` (centres unmarked) [Example 343, tert-Butyl 3-[2-(methylsulfinyl)-6-(4-oxo-4H-1,3-benzothiazin-2-yl)-4-pyridyl]propanoate], 219.5 to 220 °C. Take `C[S+]([O-])c1cc(CCC(=O)O)cc(-c2nc(=O)c3ccccc3s2)n1` (centres unmarked) [Example 344, 3-[2-(methylsulfinyl)-6-(4-oxo-4H-1,3-benzothiazin-2-yl)-4-pyridyl]propionic acid]: the melting point was 265.5 to 266 °C. `CC(C)(C)OC(=O)CCc1cc(-c2nc(=O)c3ccccc3s2)nc(S(C)(=O)=O)c1` [Example 345, tert-Butyl 3-[2-(methylsulfonyl)-6-(4-oxo-4H-1,3-benzothiazin-2-yl)-4-pyridyl]propanoate]: the melting point was 223 °C (dec.). Under `CS(=O)(=O)c1cc(CCC(=O)O)cc(-c2nc(=O)c3ccccc3s2)n1` [Example 346, 3-[2-(Methylsulfonyl)-6-(4-oxo-4H-1,3-benzothiazin-2-yl)-4-pyridyl]propionic acid] stands 305.5 to 306 °C; under `Cc1nc(-c2nc(=O)c3ccccc3s2)cs1` [Example 347, 2-(2-Methyl-1,3-thiazol-4-yl)-4H-1,3-benzothiazin-4-one], 219 to 220 °C; under `O=c1nc(-c2nccs2)sc2ccccc12` [Example 348, 2-(1,3-thiazol-2-yl)-4H-1,3-benzothiazin-4-one], 229.1 to 229.8 °C. Under `Cc1csc(-c2nc(=O)c3ccccc3s2)n1` [Example 349, 2-(4-Methyl-1,3-thiazol-2-yl)-4H-1,3-benzothiazin-4-one] stands 209.6 to 210.7 °C; under `CC(=O)N1CCCC1c1ccnc(-c2nc(=O)c3ccccc3s2)c1` (centres unmarked) [Example 351, 2-[4-(1-Acetyl-2-pyrrolidinyl)-2-pyridyl]-4H-1,3-benzothiazine-4-one], 206.2 to 207.4 °C; under `CC(C)(C)OC(=O)N1CCCC1c1ccnc(-c2nc(=O)c3ccccc3s2)c1` (centres unmarked) [Example 352, tert-Butyl 2-[2-(4-oxo-4H-1,3-benzothiazin-2-yl)-4-pyridyl]-1-pyrrolidinecarboxylate], 194.8 to 195.8 °C. Under `CC(C)(C)OC(=O)CCc1cc(C#N)nc(-c2nc(=O)c3ccccc3s2)c1` [Example 355, tert-Butyl 3-[2-cyano-6-(4-oxo-4H-1,3-benzothiazin-2-yl)-4-pyridyl]propanoate] stands 189.9 to 190.7 °C; under `N#Cc1cc(CCC(=O)O)cc(-c2nc(=O)c3ccccc3s2)n1` [Example 356, 3-[2-Cyano-6-(4-oxo-4H-1,3-benzothiazin-2-yl)-4-pyridyl]propanoate], 271 to 272.7 °C.

These data come from US7767665B2, “1,3-benzothiazinone derivatives and use thereof” (Takeda Pharmaceutical Company Limited, priority 2001, dated 2010).
